{"source": "patent US20220135622A1", "about": "“ANTIBACTERIAL PEPTIDES AND METHODS OF USE” (priority 2019, published 2022)", "key": {"[1]": {"assay": "Biolayer interferometry: captured biotinylated LAB peptides binding to phospholipids", "set-up": "species or system E. coli", "conditions": "above background", "experimental": "(§1) Biolayer interferometry. Phospholipid (Avanti polar lipids) and KDO2-lipid A (US Biological Life Sciences) stock solutions were prepared by resuspension into 25 mM Tris pH 8, 100 mM NaCl, 0.05% LMNG buffer and solubilized overnight at 4° C. Lipid stocks were diluted prior to experiments into 25 mM Tris pH 8, 100 mM NaCl, 0.5 mg/mL BSA, 0.05% LMNG. All assays were performed at 25° C. in 25 mM Tris pH 8, 100 mM NaCl, 0.5 mg/mL BSA, 0.05% LMNG. Biotinylated-LAB peptides were loaded onto SA biosensors to a response of approximately 0.5 nm. Binding to phospholipids and KDO2-lipid A was measured at concentrations of 150, 100, 50, 25, and 10 μM with 300s association and dissociation steps. Assays were performed in triplicate on an Octet Red384 (ForteBio) and buffer and lipid signals were subtracted by using a biotin-blocked reference streptavidin (SA) biosensor. Dissociation constants for LABWT and LABWT+, interactions with KDO2-lipidA were estimated by plotting response values at equilibrium as a function of concentration and fit to a global specific binding with Hill slope model in Prism (Graphpad Software).\nBased on the intriguing chemical characteristics of the LPS-PbgA interface, the possibility that a linear peptide derived from PbgA might selectively bind to LPS in vitro was considered. […]"}, "[2]": {"test_system": "E. coli", "assay": "Cell growth inhibition assay with or without EDTA", "type": "cell-based, Escherichia coli", "conditions": "irrespective of the presence or absence of EDTA (0.5 mM)", "experimental": "(§2) Peptide sensitivity and MIC assays. Lyophilized peptides (Smartox Biotechnology, CPC Scientific. ABclonal) were solubilized to 10 mM in Tris buffer, pH 8, prior to making a 2-fold dilution series in MHBII cation adjusted broth with highest final assay concentration of 400-800 μM. Bacteria were grown to log phase and added to final OD600˜0.001. The final EDTA concentration was 0.5 mM for E. coli strains and 0.125 mM for USA300. The final volume of 10 μL/well in a 384 well black, clear bottom plate (Corning) was spun <1 min at <250×g and then incubated at 37° C. After 4 h, an equal volume (10 μL) of BacTiter-Glo™ (Promega) was added to each well and luminescence was read after 5 min on an EnVision plate reader (PerkinElmer). To measure the minimal inhibitory concentrations (MICs), bacteria from fresh overnight plates or log phase cultures were diluted with or without EDTA and peptides as described above to final OD600˜0.0002. Plates were incubated at 37° C. for 20 h before measuring OD600 with an EnVision plate reader.\nIt was reasoned that the relatively large molecular weight (>2 kDa) and limited α-helical propensity of the linear LABWT peptide (SEQ ID NO: 1) might limit its access to LPS in the bacterial OM. […]"}, "[3]": {"assay": "Biolayer interferometry: captured biotinylated LAB peptides binding to LPS (KDO2-lipid A)", "experimental": "as §1\nBased on the intriguing chemical characteristics of the LPS-PbgA interface, the possibility that a linear peptide derived from PbgA might selectively bind to LPS in vitro was considered. A peptide encompassing the lipid A-binding (LAB)-motif (209SYPMTARRFLEKHGLLD225; SEQ ID NO: 67) with an additional Gly-Ser-linker and biotin modification was generated and used in an interferometry-based assay. […] Two peptides intended to destabilize essential lipid A binding determinants were tested as controls."}, "[4]": {"test_system": "wild-type E. coli strain", "assay": "Bacterial growth inhibition, wild-type E. coli strain", "type": "cell-based, Escherichia coli", "experimental": "(§3) Bacterial growth conditions. LB or Mueller Hinton II cation-adjusted broth (MHB II, BBL 212322) was prepared according to manufacturer's instructions and supplemented with arabinose at 0.02% for overnight growth or at indicated concentrations in the description of the figures. Bacterial cultures were grown at 37° C. When appropriate, media was supplemented with kanamycin (50 μg/mL), carbenicillin (50 μg/mL), chloramphenicol (12.5 or 25 μg/mL), hygromycin (200 μg/mL), and/or gentamicin (10 μg/mL).\nas §2, with “To measure the minimal inhibitory concentrations (MICs), bacteria from fresh overnight plates or log phase cultures were diluted with or without EDTA and peptides as described above to final OD600˜0.0002.” left out"}, "[5]": {"test_system": "E. coli+FhuAΔC/Δ4L", "assay": "Bacterial growth inhibition, E. coli+FhuAΔC/Δ4L", "type": "cell-based, Escherichia coli", "experimental": "as §3\nas §2, with “To measure the minimal inhibitory concentrations (MICs), bacteria from fresh overnight plates or log phase cultures were diluted with or without EDTA and peptides as described above to final OD600˜0.0002.” left out"}, "[6]": {"test_system": "E. coli imp4213", "assay": "Bacterial growth inhibition, E. coli imp4213", "type": "cell-based, Escherichia coli", "experimental": "as §3\nas §2, with “To measure the minimal inhibitory concentrations (MICs), bacteria from fresh overnight plates or log phase cultures were diluted with or without EDTA and peptides as described above to final OD600˜0.0002.” left out"}, "[7]": {"test_system": "E. coli BW25113", "type": "cell-based, Escherichia coli", "conditions": "Table 6; E. coli K-12 wild-type parent BW25113", "summary_of_the_method": "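Growth inhibition: log-phase cells (OD600 ~0.001), peptides in 2-fold series up to 400–800 μM in MHB II, EDTA 0.5 mM (E. coli) or 0.125 mM (USA300), 4 h at 37 °C, ATP luminescence readout. MICs: inoculum at OD600 ~0.0002, with or without EDTA, 20 h at 37 °C, OD600 endpoint.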"}, "[8]": {"test_system": "E. coli mcr-1", "type": "cell-based, Escherichia coli", "conditions": "Table 6", "summary_of_the_method": "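MHB II cation-adjusted, peptides 2-fold series (top 400-800 μM final), inoculum OD600 ~0.0002, EDTA 0.5 mM (E. coli) / 0.125 mM (USA300) final. 37° C, 20 h, OD600 read-out.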"}}, "note": "Entries after “also recorded” stand apart in the source; their conditions may differ.", "data": [{"substance": "GSSYPMTARRFLE (Ac-GSSYPMTARRFLE-NH2) [SEQ ID NO: 2]", "values": [{"measurement": "binding to PLs", "setting": "[1]", "result": "Neither a peptide lacking the α7 helix (LABΔα7; SEQ ID NO: 2) nor a peptide containing the T213D mutation equivalent (LABT213D; SEQ ID NO: 3) showed detectable binding to LPS or PLs above background"}, {"measurement": "effect on bacterial cell growth", "setting": "[2]", "result": "showed no effect on bacterial cell growth"}, {"measurement": "binding to LPS", "setting": "[3]; interferometry, above background, listed as LABΔα7", "result": "Neither a peptide lacking the α7 helix (LABΔα7; SEQ ID NO: 2) nor a peptide containing the T213D mutation equivalent (LABT213D; SEQ ID NO: 3) showed detectable binding to LPS or PLs above background; also recorded: failed to bind LPS in vitro"}]}, {"substance": "GSSYPMTARRFLEKHGLLD [SEQ ID NO: 1]", "values": [{"measurement": "growth inhibition", "setting": "[4]", "result": "failed to inhibit the growth"}, {"measurement": "Kd", "setting": "[3]; LPS (KDO2-lipid A), biotinylated peptide on SA biosensor, 25° C., estimated from equilibrium responses", "result": "~75", "unit": "µM"}, {"measurement": "selective binding to LPS over PLs", "setting": "[3]; versus the major PLs found in E. coli", "result": "bound LPS selectively over the major PLs"}, {"measurement": "growth inhibition", "setting": "[5]", "result": "significantly impacted the growth"}, {"measurement": "growth inhibition", "setting": "[6]", "result": "significantly impacted the growth"}]}, {"substance": "Polymyxin B [reference compound]", "values": [{"measurement": "Polymyxin B MIC", "setting": "[7]", "result": 0.2, "unit": "µM"}, {"measurement": "Polymyxin B MIC", "setting": "[8]", "result": 12.5, "unit": "µM"}]}]}
